Measurements published in publication PMC8837113, “Drug Repurposing of the Unithiol: Inhibition of Metallo-β-Lactamases for the Treatment of Carbapenem-Resistant Gram-Negative Bacterial Infections” (International Journal of Molecular Sciences, 2022).

What was measured:
[1] = target: T1, metallo-β-lactamase NDM-1 (Klebsiella pneumoniae, UniProt C7C422); assay: meropenem hydrolysis kinetics, Lineweaver–Burk (spectrophotometric, […] nm); assay type: biochemical
T1 construct: gene blaNDM-1; recombinant NDM-1, purified from the periplasmic fraction of E. coli BL21(DE3) (pET-NDM)
T1 sequence (C7C422 29-270 limits assumed): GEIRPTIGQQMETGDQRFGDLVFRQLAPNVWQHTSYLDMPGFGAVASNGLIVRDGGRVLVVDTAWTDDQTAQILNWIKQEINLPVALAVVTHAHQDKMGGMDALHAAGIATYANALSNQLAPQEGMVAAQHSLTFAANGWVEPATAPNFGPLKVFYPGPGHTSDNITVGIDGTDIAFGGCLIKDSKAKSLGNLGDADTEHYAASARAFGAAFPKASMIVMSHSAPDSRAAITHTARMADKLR

[2] = target: T2, metallo-β-lactamase VIM-2 (Pseudomonas aeruginosa, UniProt Q9K2N0); assay: kinetic inhibition assay in periplasmic fractions (Figure S1); disk diffusion and MIC support; assay type: cell-based
T2 construct: gene blaVIM-2; active mature VIM-2 in periplasmic fractions of P. aeruginosa strains B-730P/17 and B-2099/18

For `O=S(=O)(O)CC(S)CS` (centres unmarked) [compound 2, 2,3-dimercaptopropane-1-sulfonate], the Ki [1] was 16.7 ± 1.2 µM and the “kinetic inhibition assay in periplasmic fractions (Figure S1); disk diffusion an” value [2] was “A noticeable dose-dependent inhibitory effect of unithiol (Figure S1) was observed for the two strains studied”.
